Tested on: human tumor xenografts
Assay: Growth of human tumor xenografts under OSI-930 (growth curves of xenograft tumor mass)
Assay type: in vivo, mice

O=C(Nc1ccc(OC(F)(F)F)cc1)c1sccc1NCc1ccnc2ccccc12 [OSI-930]
response of xenograft tumor growth to the drug (growth curves of tumor mass) (five of the cell line xenograft models, data not shown): resistant
response of xenograft tumor growth to the drug (growth curves of tumor mass) (the other seven cell line xenograft models): significant inhibition of tumor growth
